Our source for the IC50 values is patent publication US9856220B2 (AbbVie Deutschland GmbH & Co. KG, priority 2011, dated 2018).

The assay concerns the target PDE10A (Homo sapiens (Human), UniProt Q9Y233). Put plainly: Measurement of PDE activity (recombinant PDE, cAMP HTRF). The settings on record: 20 nM cyclic nucleotide substrate, 60 minutes at 29 C. In kind it is biochemical. How it is done:
a) Measurement of PDE Activity
The recombinant PDE proteins are used in in vitro enzymatic reaction for measurement of PDE activity. These recombinant proteins, including PDE10A (human, rat and mouse PDE10) and isoforms of PDEs 1, 3, 4, and 5, were purchased from commercial vendor BPS Bioscience. The enzymatic activity of PDEs was determined by cAMP measurement kit from CisBio (IBA) using HTRF technology.
The PDE enzymatic reaction was carried out in assay buffer (20 mM Tris-HCl pH7.5, 10 mM MgCl2, 0.1% bovine serum albumin) containing enzyme and substrate. […] The substrate cyclic nucleotide (cAMP or cGMP) concentration used in the assay was 20 nM for PDE10, and 100 nM for other PDEs. The inhibitory effect of compound was determined by incubating various concentration of inhibitor in the enzymatic assay. […] Next, the compound at varying concentration was mixed with PDE enzyme. The reaction was initiated by addition of cyclic nucleotide substrate, and incubated for 60 minutes at 29 C. The reaction was stopped by addition of lysis buffer from assay kit. The cAMP-d2 and anti-cAMP cryptate in the lysis buffer detected the level of cAMP left from the PDE hydrolysis reaction. […] Thus, IC50 value of inhibitor can be obtained by plotting inhibitor concentration against PDE activity at that concentration.

Where a name gives a salt, the structure may show the parent alone.

Sequence of PDE10A (Q9Y233 whole entry, species assumed): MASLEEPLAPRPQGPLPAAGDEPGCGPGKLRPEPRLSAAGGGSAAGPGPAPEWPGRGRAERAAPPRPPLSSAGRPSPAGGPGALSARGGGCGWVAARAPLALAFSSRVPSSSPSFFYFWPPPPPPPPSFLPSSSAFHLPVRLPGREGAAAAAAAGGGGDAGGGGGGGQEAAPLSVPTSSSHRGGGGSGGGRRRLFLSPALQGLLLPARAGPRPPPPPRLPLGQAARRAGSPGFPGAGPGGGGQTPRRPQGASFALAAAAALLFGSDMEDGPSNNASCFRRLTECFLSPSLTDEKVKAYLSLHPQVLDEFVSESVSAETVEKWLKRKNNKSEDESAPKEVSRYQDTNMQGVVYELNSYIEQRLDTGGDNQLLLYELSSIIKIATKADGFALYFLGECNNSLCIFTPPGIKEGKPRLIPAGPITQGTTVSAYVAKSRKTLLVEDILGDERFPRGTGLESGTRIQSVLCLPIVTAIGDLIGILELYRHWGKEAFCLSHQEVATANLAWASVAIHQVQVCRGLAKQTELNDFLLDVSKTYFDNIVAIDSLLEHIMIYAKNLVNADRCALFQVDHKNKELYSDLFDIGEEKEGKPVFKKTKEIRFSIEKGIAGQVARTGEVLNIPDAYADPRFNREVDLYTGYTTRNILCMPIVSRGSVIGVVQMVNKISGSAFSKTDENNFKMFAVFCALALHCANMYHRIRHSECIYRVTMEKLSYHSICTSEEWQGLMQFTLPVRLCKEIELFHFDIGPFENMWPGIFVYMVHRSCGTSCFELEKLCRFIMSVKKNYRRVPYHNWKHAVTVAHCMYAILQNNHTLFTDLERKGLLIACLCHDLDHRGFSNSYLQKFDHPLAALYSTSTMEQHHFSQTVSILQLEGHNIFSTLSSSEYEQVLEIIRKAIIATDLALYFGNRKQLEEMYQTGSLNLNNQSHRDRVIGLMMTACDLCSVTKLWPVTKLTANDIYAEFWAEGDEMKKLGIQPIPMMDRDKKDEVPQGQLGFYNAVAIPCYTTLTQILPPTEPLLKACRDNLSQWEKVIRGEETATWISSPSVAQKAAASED

As to `CCn1cc(C(=O)NCc2ccc(F)cc2F)c2cc(OC)c(OC)cc2c1=O` [Example 34, 2-Ethyl-6,7-dimethoxy-1-oxo-1,2-dihydro-isoquinoline-4-carboxylic acid 2,4-difluoro-benzylamide], the IC50 (usually the concentration that inhibits the measured activity by half) lay within 200 to 500 nM.

Regarding `CCn1cc(C(=O)NCc2ccncn2)c2cc(OC)c(OC)cc2c1=O` [Example 139, 2-Ethyl-6,7-dimethoxy-1-oxo-N-(pyrimidin-4-ylmethyl)-1,2-dihydroisoquinoline-4-carboxamide], the IC50 was in the range of 200 to 500 nM.

Turning to `CCC(CC)n1cc(C(=O)NCc2ncc(C)o2)c2cc(OC)c(OC)cc2c1=O` [Example 259, 6,7-Dimethoxy-N-((5-methyloxazol-2-yl)methyl)-1-oxo-2-(pentan-3-yl)-1,2-dihydroisoquinoline-4-carboxamide], the IC50 is 200 to 500 nM.

As for `CCC(CC)n1cc(C(=O)NCc2ccc(F)c(F)c2)c2cc(OC)c(OC)cc2c1=O` [Example 189, 2-(1-Ethyl-propyl)-6,7-dimethoxy-1-oxo-1,2-dihydro-isoquinoline-4-carboxylic acid 3,4-difluoro-benzylamide], the IC50 is 100 to 200 nM.

In the case of `CCn1cc(C(=O)NC2CCc3cc(F)ccc32)c2cc(OC)c(OC)cc2c1=O` (centres unmarked) [Example 177, 2-Ethyl-N-(5-fluoro-2,3-dihydro-1H-inden-1-yl)-6,7-dimethoxy-1-oxo-1,2-dihydroisoquinoline-4-carboxamide], the IC50 fell in the range of 200 to 500 nM.

As for `CCn1cc(C(=O)NCc2ccccc2CN2CCOCC2)c2cc(OC)c(OC)cc2c1=O` [Example 168, 2-Ethyl-6,7-dimethoxy-N-(2-(morpholinomethyl)benzyl)-1-oxo-1,2-dihydroiso-quinoline-4-carboxamide], the IC50 was 200 to 500 nM.

Take `CCC(CC)n1cc(C(=O)NCc2ccn(C)n2)c2cc(OC)c(OC)cc2c1=O` [Example 269, 6,7-Dimethoxy-N-((1-methyl-1H-pyrazol-3-yl)methyl)-1-oxo-2-(pentan-3-yl)-1,2-dihydroisoquinoline-4-carboxamide]: the IC50 is 200 to 500 nM.

With `CCn1cc(C(=O)NCc2ccccc2)c2cc(OC)c(OC)cc2c1=O` [Example 26, 2-Ethyl-6,7-dimethoxy-1-oxo-1,2-dihydro-isoquinoline-4-carboxylic acid benzylamide], the IC50 fell in the range of 100 to 200 nM.

`CCn1cc(C(=O)NCc2ccc(C)cc2OCCOC)c2cc(OC)c(OC)cc2c1=O` [Example 293, 2-Ethyl-6,7-dimethoxy-N-[[2-(2-methoxyethoxy)-4-methyl-phenyl]methyl]-1-oxo-isoquinoline-4-carboxamide]: the IC50 was 200 to 500 nM.

Consider `CCn1cc(C(=O)Nc2ccncc2)c2cc(OC)c(OC)cc2c1=O` [Example 164, 2-Ethyl-6,7-dimethoxy-1-oxo-N-(pyridin-4-yl)-1,2-dihydroisoquinoline-4-carboxamide], for which the IC50 was in the range of 200 to 500 nM.

Take `CCC(CC)n1cc(C(=O)NCc2scnc2C)c2cc(OC)c(OC)cc2c1=O` [Example 249, 6,7-Dimethoxy-N-((4-methylthiazol-5-yl)methyl)-1-oxo-2-(pentan-3-yl)-1,2-dihydroisoquinoline-4-carboxamide]: the IC50 was 200 to 500 nM.

As for `CCn1cc(C(=O)NC(C)CC(C)C)c2cc(OC)c(OC)cc2c1=O` (centres unmarked) [Example 23, 2-Ethyl-6,7-dimethoxy-1-oxo-1,2-dihydro-isoquinoline-4-carboxylic acid (1,3-dimethyl-butyl)-amide], the IC50 was in the range of 200 to 500 nM.

Turning to `CCn1cc(C(=O)NC2CCc3ccc(C)cc32)c2cc(OC)c(OC)cc2c1=O` (centres unmarked) [Example 167, 2-Ethyl-6,7-dimethoxy-N-(6-methyl-2,3-dihydro-1H-inden-1-yl)-1-oxo-1,2-dihydroisoquinoline-4-carboxamide], the IC50 lay in the range of 200 to 500 nM.

On to `CCC(CC)n1cc(C(=O)NCc2ccoc2C)c2cc(OC)c(OC)cc2c1=O` [Example 268, 6,7-Dimethoxy-N-((2-methylfuran-3-yl)methyl)-1-oxo-2-(pentan-3-yl)-1,2-dihydroisoquinoline-4-carboxamide], for which the IC50 lay in the range of 200 to 500 nM.

As to `CCC(CC)n1cc(C(=O)NC2CCc3cc(F)ccc32)c2cc(OC)c(OC)cc2c1=O` (centres unmarked) [Example 252, N-(5-Fluoro-2,3-dihydro-1H-inden-1-yl)-6,7-dimethoxy-1-oxo-2-(pentan-3-yl)-1,2-dihydroisoquinoline-4-carboxamide], the IC50 was 100 to 200 nM.

On to `CCn1cc(C(=O)NCc2cc(F)cc(F)c2)c2cc(OC)c(OC)cc2c1=O` [Example 37, 2-Ethyl-6,7-dimethoxy-1-oxo-1,2-dihydro-isoquinoline-4-carboxylic acid 3,5-difluoro-benzylamide], for which the IC50 lay within 100 to 200 nM.

As for `CCn1cc(C(=O)NCc2ccc(C)cc2OC2CCOC2)c2cc(OC)c(OC)cc2c1=O` (centres unmarked) [Example 303, 2-Ethyl-6,7-dimethoxy-N-(4-methyl-2-(tetrahydrofuran-3-yloxy)benzyl)-1-oxo-1,2-dihydroisoquinoline-4-carboxamide], the IC50 is 200 to 500 nM.

As for `CCc1ccc(CNC(=O)c2cn(C(CC)CC)c(=O)c3cc(OC)c(OC)cc23)s1` [Example 266, N-((5-Ethylthiophen-2-yl)methyl)-6,7-dimethoxy-1-oxo-2-(pentan-3-yl)-1,2-dihydroisoquinoline-4-carboxamide], the IC50 fell in the range of 200 to 500 nM.

Turning to `CCC(CC)n1cc(C(=O)NCc2ccccc2CN(C)C)c2cc(OC)c(OC)cc2c1=O` [Example 187, 2-(1-Ethyl-propyl)-6,7-dimethoxy-1-oxo-1,2-dihydro-isoquinoline-4-carboxylic acid 2-dimethylaminomethyl-benzylamide hydrochloride], the IC50 fell in the range of 200 to 500 nM.

Consider `CCC(CC)n1cc(C(=O)N[C@@H]2CCc3ccccc32)c2cc(OC)c(OC)cc2c1=O` [Example 191, 2-(1-Ethyl-propyl)-6,7-dimethoxy-1-oxo-1,2-dihydro-isoquinoline-4-carboxylic acid (R)-indan-1-ylamide], for which the 50% inhibitory concentration (IC50) lay in the range of 200 to 500 nM.

For `CCn1cc(C(=O)Nc2ccccc2OC)c2cc(OC)c(OC)cc2c1=O` [Example 146, 2-Ethyl-6,7-dimethoxy-N-(2-methoxyphenyl)-1-oxo-1,2-dihydroisoquinoline-4-carboxamide], the IC50 lay within 200 to 500 nM.

As for `CCn1cc(C(=O)NCC2CCCCC2)c2cc(OC)c(OC)cc2c1=O` [Example 28, 2-Ethyl-6,7-dimethoxy-1-oxo-1,2-dihydro-isoquinoline-4-carboxylic acid cyclohexylmethyl-amide], the IC50 was 200 to 500 nM.

As to `CCn1cc(C(=O)N2Cc3ccccc3C2)c2cc(OC)c(OC)cc2c1=O` [Example 51, 4-(1,3-Dihydro-isoindole-2-carbonyl)-2-ethyl-6,7-dimethoxy-2H-isoquinolin-1-one], the IC50 was 200 to 500 nM.

In the case of `CCn1cc(C(=O)NCc2ccc(C)cc2OC(C)(C)C)c2cc(OC)c(OC)cc2c1=O` [Example 276, N-[(2-tert-Butoxy-4-methyl-phenyl)methyl]-2-ethyl-6,7-dimethoxy-1-oxo-isoquinoline-4-carboxamide], the IC50 fell in the range of 200 to 500 nM.

As to `CCCCNC(=O)c1cn(CC)c(=O)c2cc(OC)c(OC)cc12` [Example 1, 2-Ethyl-6,7-dimethoxy-1-oxo-1,2-dihydro-isoquinoline-4-carboxylic acid butylamide], the IC50 is 100 to 200 nM.

Take `CCC(CC)n1cc(C(=O)NCc2ccc(C#N)o2)c2cc(OC)c(OC)cc2c1=O` [Example 264, N-((5-Cyanofuran-2-yl)methyl)-6,7-dimethoxy-1-oxo-2-(pentan-3-yl)-1,2-dihydroisoquinoline-4-carboxamide]: the half-inhibitory concentration (IC50) is 200 to 500 nM.
